Measurements published in publication PMC11785157 (bioRxiv, 2025).
Like-named read-outs stand apart in the source and are kept apart here.

Experiments:
CHIKV [1] = assay: CPE reduction assay, CHIKV in Vero cells; format: cell-based, chikungunya virus; conditions: read-out: EC50 CHIKV
CHIKV [2] = assay: CPE reduction assay, CHIKV in skin fibroblasts; format: cell-based, chikungunya virus; conditions: read-out: EC50 CHIKV
SFV [3] = assay: microbe, parasite or virus in culture; format: cell-based; conditions: Semliki Forest virus, Vero, 72 h, read-out: EC50 SFV
SINV HRsp [4] = assay: microbe, parasite or virus in culture; format: cell-based; conditions: Sindbis virus, Vero, 72 h, read-out: EC50 SINV HRsp
SINV AR86 [5] = assay: microbe, parasite or virus in culture; format: cell-based; conditions: Sindbis virus, Vero, 72 h, read-out: EC50 SINV AR86
RRV [6] = assay: microbe, parasite or virus in culture; format: cell-based; conditions: Ross River virus, Vero, 72 h, read-out: EC50 RRV
VEEV TC83 [7] = assay: microbe, parasite or virus in culture; format: cell-based; conditions: Venezuelan equine encephalitis virus, Vero, 72 h, read-out: EC50 VEEV TC83
SFV [8] = assay: microbe, parasite or virus in culture; format: cell-based; conditions: Semliki Forest virus, Skin fibroblast, 72 h, read-out: EC50 SFV
RRV [9] = assay: microbe, parasite or virus in culture; format: cell-based; conditions: Ross River virus, Skin fibroblast, 72 h, read-out: EC50 RRV
SINV HRsp [10] = assay: microbe, parasite or virus in culture; format: cell-based, Sindbis virus; conditions: for EC50: Sindbis virus, Huh-7, 72 h, read-out: EC50 SINV HRsp
SINV AR86 [11] = assay: microbe, parasite or virus in culture; format: cell-based, Sindbis virus; conditions: for EC50: Sindbis virus, Huh-7, 72 h, read-out: EC50 SINV AR86
VEEV TC83 [12] = assay: microbe, parasite or virus in culture; format: cell-based, Venezuelan Equine Encephalitis virus; conditions: for EC50: Venezuelan equine encephalitis virus, Huh-7, 72 h, read-out: EC50 VEEV TC83
[13] = system: alphaviruses (CHIKV, SFV, SINV-HRsp, SINV-AR86, VEEV TC83 and RRV); assay: microbe, parasite or virus in culture; format: cell-based
alphaviruses [14] = assay: organism not typed; format: cell-based
in vitro [15] = conditions: African green monkey
in vitro [16] = conditions: human
in vitro [17] = conditions: human; remark: listed apart in the source
alphaviruses [18] = format: cell-based
CHIKV [19] = assay: CHIKV-induced foot swelling in AG129 mice; format: in vivo
CHIKV [20] = assay: Infectious virus titres in CHIKV-infected AG129 mice; format: in vivo
CHIKV [21] = assay: Viral RNA levels in CHIKV-infected AG129 mice; format: in vivo; conditions: day 3 pi
[22] = mouse, in vivo
CHIKV [23] = conditions: SOF 40-80 mg/kg/day; cited from earlier work
CHIKV [24] = conditions: SOF 20 mg/kg/day; cited from earlier work
[25] = Chikungunya virus, Skin fibroblast, 72 h
[26] = combination study, day 2 pi, MPV 10 mg/kg, SOF 80 mg/kg or both (80 + 10 mg/kg), oral
[27] = MPV 10, 50, 100 mg/kg, day 3 pi

SMILES	EC50 (CHIKV [1]; Chikungunya virus, Vero, 72 h) [µM]	EC50 (SFV [3]) [µM]	EC50 (SINV HRsp [4]) [µM]	EC50 (RRV [6]) [µM]	EC50 (VEEV TC83 [7]) [µM]	EC50 (CHIKV [2]; [25]) [µM]	EC50 (SFV [8]) [µM]	EC50 (RRV [9]) [µM]	EC50 (SINV HRsp [10]) [µM]	antiviral activity against SINV AR86 (in words) (SINV AR86 [11])	EC50 (SINV AR86 [11]) [µM]	antiviral activity against VEEV TC83 (in words) (VEEV TC83 [12])	EC50 (VEEV TC83 [12]) [µM]	CC50 (in vitro [15]) [µM]	CC50 (in vitro [16]) [µM]	CC50 (in vitro [17]) [µM]	reduction of foot swelling compared to vehicle (CHIKV [19]; [26]) [%]	other results
O=c1nc(NO)ccn1[C@@H]1O[C@H](CO)[C@@H](O)[C@H]1O [EIDD-1931]	–	–	–	–	–	–	–	–	–	–	–	–	–	–	–	–	–	EC50 (CHIKV [1]; Vero cells, 72 h pi, MTS): 0.7 µM; EC50 (CHIKV [2]; Skin fibroblasts, 72 h pi, MTS): 0.9 µM; CC50 (Vero cells): > 200 µM; CC50 (Human skin fibroblasts): 140 ± 19 µM; CC50 (Huh7 cells): 22 ± 11 µM
NC(=O)c1nc(F)c[nH]c1=O [FAV, favipiravir]	35 ± 14	33 ± 6	52 ± 18	15 ± 12	13	143 ± 5	382	> 200	22 ± 7	active	29 ± 18	active	112	374 ± 17	> 500	> 500	–	EC50 (SINV AR86 [5]): 17 ± 2 µM; antiviral activity against SINV HRsp (in words) (SINV HRsp [10]): active; EC50 ([13]; Chikungunya virus, Vero, read-out: EC50 values against all alphaviruses tested): 13 to 52 µM; antiviral efficacy (in words) (alphaviruses [14]): only effective against CHIKV
CC(C)C(=O)OC[C@H]1O[C@@H](n2ccc(NO)nc2=O)[C@H](O)[C@@H]1O [MPV, Molnupiravir]	–	–	–	–	–	–	–	–	–	–	–	–	–	–	–	–	19	EC50 values against all alphaviruses tested (in words) (alphaviruses [14]): sub to low single-digit micromolar range; EC50 values, pan-alphavirus (in words) (alphaviruses [18]): sub to low single-digit micromolar range; effect on foot swelling (in words) (CHIKV [19]; MPV 10 mg/kg oral twice daily, dose-response study): did not significantly improve swelling; reduction of foot swelling compared to vehicle (CHIKV [19]; MPV 50 mg/kg oral twice daily, day 2 pi): 22%; reduction of foot swelling compared to vehicle (CHIKV [19]; MPV 50 mg/kg oral twice daily, day 3 pi): 55%; reduction of foot swelling compared to vehicle (CHIKV [19]; MPV 100 mg/kg oral twice daily, day 2 pi): 20%; reduction of foot swelling compared to vehicle (CHIKV [19]; MPV 100 mg/kg oral twice daily, day 3 pi): 62%; infectious virus in contralateral ankle (in words) (CHIKV [20]; [27]): dose-dependent decreases; infectious virus in serum (in words) (CHIKV [20]; [27]): dose-dependent decreases; infectious CHIKV in serum (in words) (CHIKV [20]; MPV all doses (10, 50, 100 mg/kg), day 2 pi): suppressed infectious CHIKV; reduction of infectious virus titres in serum (CHIKV [20]; combination study, day 3 pi, MPV 10 mg/kg, SOF 80 mg/kg or both): 1 log10 TCID50/mL; infectious virus in left ankle (in words) (CHIKV [20]; highest dose of MPV, day 3 pi): significant decreases; viral RNA in contralateral ankle (in words) (CHIKV [21]; MPV 10, 50, 100 mg/kg): dose-dependent decreases; viral RNA in serum (in words) (CHIKV [21]; MPV 10, 50, 100 mg/kg): significantly reduced; viral RNA in left ankle (in words) (CHIKV [21]; highest dose of MPV): significant decreases; tolerability [22]: well-tolerated
CC(C)OC(=O)[C@H](C)N[P@](=O)(OC[C@H]1O[C@@H](n2ccc(=O)[nH]c2=O)[C@](C)(F)[C@@H]1O)Oc1ccccc1 [SOF, Sofosbuvir]	> 100	> 100	> 100	> 100	> 100	15 ± 3	17 ± 3	20 ± 7	44 ± 3	did not inhibit	> 50	did not inhibit	> 50	350 ± 14	280 ± 13	271 ± 95	25	antiviral activity [13]: no antiviral activity; EC50 (alphaviruses [14]; Skin fibroblast, read-out: EC50 values against all alphaviruses tested): 12 to 20 µM; effect on foot swelling (in words) (CHIKV [19]; SOF 40 and 80 mg/kg oral twice daily, over the course of the infection): did not significantly improve; reduction of foot swelling compared to vehicle (CHIKV [19]; combination study, day 3 pi, MPV 10 mg/kg, SOF 80 mg/kg or both (80 + 10 mg/kg), oral): no reduction; survival (CHIKV [23]): improved survival; foot swelling (CHIKV [24]): slightly reduced; reduction of viral RNA in the joint (CHIKV [24]): < 1 log gc/ml
